Among the data in US20230143604A1, “QW DOSING OF GIP RECEPTOR AGONIST PEPTIDE COMPOUNDS AND USES THEREOF” (TAKEDA PHARMACEUTICAL COMPANY LIMITED, priority 2020, published 2023) are solubility values, retold here.

The solubility is the concentration that dissolves in the medium under given conditions. Low values mean a poorly soluble substance, high ones a readily soluble substance.

The data set in a line: Solubility in phosphate buffer pH 7.4. In a few lines:
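3 mg of peptide treated with 100 μL portions of 200 mM phosphate buffer pH 7.4, sonicating/vortexing up to 1 min, with further buffer added until fully dissolved. Solubility then quantified by HPLC.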

Setting [1] is: pH 7.4, aqueous buffer, pH 7.4 Phosphate Buffer - Solubility, 200 mM Phosphate buffer pH 7.4.
[2] abbreviates: pH 7.4, solubility in phosphate buffer at pH 7.4, 200 mM phosphate buffer pH 7.4.

Starred links: 1 amine or outer side, 2 acyl side, 3 side chain; linkers in the order of their positions; H or OH if unused. Non-standard residues stand in square brackets, D forms with d. Residues, ends and D or L forms follow the SMILES beside them. Groups on a side chain read outwards from the residue. *: point of attachment. C20 diacid = O=C(O)CCCCCCCCCCCCCCCCCCC(=O)*; C18 diacid = O=C(O)CCCCCCCCCCCCCCCCC(=O)*; C17 diacid = O=C(O)CCCCCCCCCCCCCCCC(=O)*; γGlu = O=C(O)[C@H](CCC(=O)[*:2])N[*:1]; NMeY = CN[C@@H](Cc1ccc(O)cc1)C(=O)O; AEEA = NCCOCCOCC(=O)O; Aib = CC(C)(N)C(=O)O

`CC[C@H](C)[C@H](NC(=O)[C@H](Cc1ccccc1)NC(=O)[C@@H](NC(=O)CNC(=O)[C@H](CCC(=O)O)NC(=O)C(C)(C)NC(=O)[C@H](Cc1ccc(O)cc1)NC)[C@@H](C)O)C(=O)N[C@@H](CO)C(=O)N[C@@H](CC(=O)O)C(=O)N[C@@H](Cc1ccc(O)cc1)C(=O)N[C@@H](CO)C(=O)N[C@H](C(=O)NC(C)(C)C(=O)N[C@@H](CC(C)C)C(=O)N[C@@H](CC(=O)O)C(=O)N[C@@H](CCCNC(=N)N)C(=O)NC(C)(C)C(=O)N[C@@H](C)C(=O)N[C@@H](CCC(N)=O)C(=O)NC(C)(C)C(=O)N[C@@H](CCCCNC(=O)COCCOCCNC(=O)COCCOCCNC(=O)CC[C@H](NC(=O)CCCCCCCCCCCCCCCCC(=O)O)C(=O)O)C(=O)N[C@@H](Cc1ccccc1)C(=O)N[C@H](C(=O)N[C@@H](CC(N)=O)C(=O)N[C@@H](Cc1c[nH]c2ccccc12)C(=O)N[C@@H](CC(C)C)C(=O)N[C@@H](CC(C)C)C(=O)N[C@@H](C)C(=O)N[C@@H](CCC(N)=O)C(=O)N[C@@H](CO)C(=O)N1CCC[C@H]1C(=O)N[C@@H](CO)C(=O)N[C@@H](CO)C(=O)NCC(=O)N[C@@H](C)C(=O)N1CCC[C@H]1C(=O)N1CCC[C@H]1C(=O)N1CCC[C@H]1C(=O)N[C@@H](CO)C(N)=O)C(C)C)[C@@H](C)CC` [Compound 91] (H-[NMeY][Aib]EGTFISDYSI[Aib]LDR[Aib]AQ[Aib]K([AEEA-AEEA-γGlu-C18 diacid])FVNWLLAQSPSSGAPPPS-NH2): the solubility is, setting by setting: under setting [1], ≥ 60 mg/mL; under setting [2], ≥ 15 mg/mL.
Consider `CC[C@H](C)[C@H](NC(=O)[C@H](Cc1ccccc1)NC(=O)[C@@H](NC(=O)CNC(=O)[C@H](CCC(=O)O)NC(=O)C(C)(C)NC(=O)[C@H](Cc1ccc(O)cc1)NC)[C@@H](C)O)C(=O)N[C@@H](CO)C(=O)N[C@@H](CC(=O)O)C(=O)N[C@@H](Cc1ccc(O)cc1)C(=O)N[C@@H](CO)C(=O)N[C@H](C(=O)NC(C)(C)C(=O)N[C@@H](CC(C)C)C(=O)N[C@@H](CC(=O)O)C(=O)N[C@@H](CCCNC(=N)N)C(=O)NC(C)(C)C(=O)N[C@@H](C)C(=O)N[C@@H](CCC(N)=O)C(=O)NC(C)(C)C(=O)N[C@@H](CCCCNC(=O)COCCOCCNC(=O)CC[C@H](NC(=O)COCCOCCNC(=O)CC[C@H](NC(=O)CCCCCCCCCCCCCCCCC(=O)O)C(=O)O)C(=O)O)C(=O)N[C@@H](Cc1ccccc1)C(=O)N[C@H](C(=O)N[C@@H](CC(N)=O)C(=O)N[C@@H](Cc1c[nH]c2ccccc12)C(=O)N[C@@H](CC(C)C)C(=O)N[C@@H](CC(C)C)C(=O)N[C@@H](C)C(=O)N[C@@H](CCC(N)=O)C(=O)N[C@@H](CO)C(=O)N1CCC[C@H]1C(=O)N[C@@H](CO)C(=O)N[C@@H](CO)C(=O)NCC(=O)N[C@@H](C)C(=O)N1CCC[C@H]1C(=O)N1CCC[C@H]1C(=O)N1CCC[C@H]1C(=O)N[C@@H](CO)C(N)=O)C(C)C)[C@@H](C)CC` [Compound 92] (H-[NMeY][Aib]EGTFISDYSI[Aib]LDR[Aib]AQ[Aib]K([AEEA-γGlu-AEEA-γGlu-C18 diacid])FVNWLLAQSPSSGAPPPS-NH2), for which the solubility was ≥ 60 mg/mL under setting [1] and ≥ 15 mg/mL under setting [2].
For `CC[C@H](C)[C@H](NC(=O)[C@H](Cc1ccccc1)NC(=O)[C@@H](NC(=O)CNC(=O)[C@H](CCC(=O)O)NC(=O)C(C)(C)NC(=O)[C@H](Cc1ccc(O)cc1)NC)[C@@H](C)O)C(=O)N[C@@H](CO)C(=O)N[C@@H](CC(=O)O)C(=O)N[C@@H](Cc1ccc(O)cc1)C(=O)N[C@@H](CO)C(=O)N[C@H](C(=O)NC(C)(C)C(=O)N[C@@H](CC(C)C)C(=O)N[C@@H](CC(=O)O)C(=O)N[C@@H](CCCNC(=N)N)C(=O)NC(C)(C)C(=O)N[C@@H](C)C(=O)N[C@@H](CCC(N)=O)C(=O)NC(C)(C)C(=O)N[C@@H](CCCCNC(=O)COCCOCCNC(=O)CC[C@H](NC(=O)CC[C@H](NC(=O)CCCCCCCCCCCCCCCCC(=O)O)C(=O)O)C(=O)O)C(=O)N[C@@H](Cc1ccccc1)C(=O)N[C@H](C(=O)N[C@@H](CC(N)=O)C(=O)N[C@@H](Cc1c[nH]c2ccccc12)C(=O)N[C@@H](CC(C)C)C(=O)N[C@@H](CC(C)C)C(=O)N[C@@H](C)C(=O)N[C@@H](CCC(N)=O)C(=O)N[C@@H](CO)C(=O)N1CCC[C@H]1C(=O)N[C@@H](CO)C(=O)N[C@@H](CO)C(=O)NCC(=O)N[C@@H](C)C(=O)N1CCC[C@H]1C(=O)N1CCC[C@H]1C(=O)N1CCC[C@H]1C(=O)N[C@@H](CO)C(N)=O)C(C)C)[C@@H](C)CC` [Compound 93] (H-[NMeY][Aib]EGTFISDYSI[Aib]LDR[Aib]AQ[Aib]K([AEEA-γGlu-γGlu-C18 diacid])FVNWLLAQSPSSGAPPPS-NH2), the solubility under setting [1] is ≥ 60 mg/mL and the solubility under setting [2] is ≥ 15 mg/mL.
The corresponding values for `CC[C@H](C)[C@H](NC(=O)[C@H](Cc1ccccc1)NC(=O)[C@@H](NC(=O)CNC(=O)[C@H](CCC(=O)O)NC(=O)C(C)(C)NC(=O)[C@H](Cc1ccc(O)cc1)NC)[C@@H](C)O)C(=O)N[C@@H](CO)C(=O)N[C@@H](CC(=O)O)C(=O)N[C@@H](Cc1ccc(O)cc1)C(=O)N[C@@H](CO)C(=O)N[C@H](C(=O)NC(C)(C)C(=O)N[C@@H](CC(C)C)C(=O)N[C@@H](CC(=O)O)C(=O)N[C@@H](CCCNC(=N)N)C(=O)NC(C)(C)C(=O)N[C@@H](C)C(=O)N[C@@H](CCC(N)=O)C(=O)NC(C)(C)C(=O)N[C@@H](CCCCNC(=O)COCCOCCNC(=O)COCCOCCNC(=O)CC[C@H](NC(=O)CC[C@H](NC(=O)CCCCCCCCCCCCCCCC(=O)O)C(=O)O)C(=O)O)C(=O)N[C@@H](Cc1ccccc1)C(=O)N[C@H](C(=O)N[C@@H](CC(N)=O)C(=O)N[C@@H](Cc1c[nH]c2ccccc12)C(=O)N[C@@H](CC(C)C)C(=O)N[C@@H](CC(C)C)C(=O)N[C@@H](C)C(=O)N[C@@H](CCC(N)=O)C(=O)N[C@@H](CO)C(=O)N1CCC[C@H]1C(=O)N[C@@H](CO)C(=O)N[C@@H](CO)C(=O)NCC(=O)N[C@@H](C)C(=O)N1CCC[C@H]1C(=O)N1CCC[C@H]1C(=O)N1CCC[C@H]1C(=O)N[C@@H](CO)C(N)=O)C(C)C)[C@@H](C)CC` [Compound 94] (H-[NMeY][Aib]EGTFISDYSI[Aib]LDR[Aib]AQ[Aib]K([AEEA-AEEA-γGlu-γGlu-C17 diacid])FVNWLLAQSPSSGAPPPS-NH2) are ≥ 60 mg/mL and ≥ 15 mg/mL.
The like results for `CC[C@H](C)[C@H](NC(=O)[C@H](CO)NC(=O)[C@H](Cc1ccc(O)cc1)NC(=O)[C@H](CC(=O)O)NC(=O)[C@H](CO)NC(=O)[C@@H](NC(=O)[C@H](Cc1ccccc1)NC(=O)[C@@H](NC(=O)CNC(=O)[C@H](CCC(=O)O)NC(=O)C(C)(C)NC(=O)[C@H](Cc1ccc(O)cc1)NC)[C@@H](C)O)[C@@H](C)CC)C(=O)N[C@@H](C)C(=O)N[C@@H](CC(C)C)C(=O)N[C@@H](CC(=O)O)C(=O)N[C@@H](CCCNC(=N)N)C(=O)NC(C)(C)C(=O)N[C@@H](C)C(=O)N[C@@H](CCC(N)=O)C(=O)NC(C)(C)C(=O)N[C@@H](CCCCNC(=O)COCCOCCNC(=O)COCCOCCNC(=O)CC[C@H](NC(=O)CC[C@H](NC(=O)CCCCCCCCCCCCCCCCC(=O)O)C(=O)O)C(=O)O)C(=O)N[C@@H](Cc1ccccc1)C(=O)N[C@H](C(=O)N[C@@H](CC(N)=O)C(=O)N[C@@H](Cc1c[nH]c2ccccc12)C(=O)N[C@@H](CC(C)C)C(=O)N[C@@H](CC(C)C)C(=O)N[C@@H](C)C(=O)N[C@@H](CCC(N)=O)C(=O)N[C@@H](CO)C(=O)N1CCC[C@H]1C(=O)N[C@@H](CO)C(=O)N[C@@H](CO)C(=O)NCC(=O)N[C@@H](C)C(=O)N1CCC[C@H]1C(=O)N1CCC[C@H]1C(=O)N1CCC[C@H]1C(=O)N[C@@H](CO)C(N)=O)C(C)C` [Compound 97] (H-[NMeY][Aib]EGTFISDYSIALDR[Aib]AQ[Aib]K([AEEA-AEEA-γGlu-γGlu-C18 diacid])FVNWLLAQSPSSGAPPPS-NH2) were, in that order, ≥ 60 mg/mL and ≥ 15 mg/mL.
Take `CC[C@H](C)[C@H](NC(=O)[C@H](CO)NC(=O)[C@H](Cc1ccc(O)cc1)NC(=O)[C@H](CC(=O)O)NC(=O)[C@H](CO)NC(=O)[C@@H](NC(=O)[C@H](Cc1ccccc1)NC(=O)[C@@H](NC(=O)CNC(=O)[C@H](CCC(=O)O)NC(=O)C(C)(C)NC(=O)[C@H](Cc1ccc(O)cc1)NC)[C@@H](C)O)[C@@H](C)CC)C(=O)N[C@@H](C)C(=O)N[C@@H](CC(C)C)C(=O)N[C@@H](CC(=O)O)C(=O)N[C@@H](CCCNC(=N)N)C(=O)NC(C)(C)C(=O)N[C@@H](CCCCNC(=O)COCCOCCNC(=O)COCCOCCNC(=O)CC[C@H](NC(=O)CC[C@H](NC(=O)CCCCCCCCCCCCCCCCCCC(=O)O)C(=O)O)C(=O)O)C(=O)N[C@@H](CCC(N)=O)C(=O)NC(C)(C)C(=O)N[C@@H](CC(N)=O)C(=O)N[C@@H](Cc1ccccc1)C(=O)N[C@H](C(=O)N[C@@H](CC(N)=O)C(=O)N[C@@H](Cc1c[nH]c2ccccc12)C(=O)N[C@@H](CC(C)C)C(=O)N[C@@H](CC(C)C)C(=O)N[C@@H](C)C(=O)N[C@@H](CCC(N)=O)C(=O)N[C@@H](CO)C(=O)N1CCC[C@H]1C(=O)N[C@@H](CO)C(=O)N[C@@H](CO)C(=O)NCC(=O)N[C@@H](C)C(=O)N1CCC[C@H]1C(=O)N1CCC[C@H]1C(=O)N1CCC[C@H]1C(=O)N[C@@H](CO)C(N)=O)C(C)C` [Compound 99] (H-[NMeY][Aib]EGTFISDYSIALDR[Aib]K([AEEA-AEEA-γGlu-γGlu-C20 diacid])Q[Aib]NFVNWLLAQSPSSGAPPPS-NH2): under setting [1], the solubility is ≥ 60 mg/mL.
